Values joined by “and” are separate entries in the source; they are usually repeats but may differ in a detail not shown here. Identical values can stand only once.
What was measured:
[1] = design: species or system cat; conditions: in vivo
Method: • study period: D0-560 (18 months)· • n=20 adults, sexually mature intact male cats • blinded, randomized • Suprelorin® group: n=16=>4.7 mg Suprelorin® SC, neck • Control group: n=4=>0.5 ml saline SC, neck
Blood samples were collected from 16 healthy, intact male cats that had received a deslorelin implant. Samples were analyzed using a validated liquid chromatography coupled to tandem mass spectrometry (LC-MS/MS) method after solid extraction using Oasis® WCX uElution plate. […] Concentrations measured below the lower limit of quantification (LLOQ) of 4 pg/mL were reported as BLQ (Below the Limit of Quantification).
Non-compartmental pharmacokinetic analysis of individual deslorelin concentrations in feline plasma was performed using Phoenix® software (WinNonlin 8.0, NLME 1.6, Certara L. P., Pharsight, St. Louis, MO, USA) to estimate the pharmacokinetic parameters of deslorelin.

[2] = tested on: testosterone; assay: Correlation between deslorelin and testosterone concentration (Example 4); assay type: in vivo, cat; conditions: 16 male cats, 4.7 mg implant; assessed graphically
Method: The serum concentration of testosterone was measured according to the protocol detailed in example 2, point 2.1.
The plasmatic concentration of deslorelin was measured according to the protocol detailed in example 1, point 1.1.

[3] = tested on: intact male cats; assay: Testicular size by calipers (Example 7); assay type: in vivo, cat; conditions: treated cats
[4] = in vivo; assay type: in vivo, dog; conditions: male, dog, in vivo, 4.7 mg
[5] = tested on: testosterone, LH and FSH; assay: in vivo; assay type: in vivo, dog; conditions: assessed graphically
[6] = tested on: male cats; assay: Cat field studies 1 and 2: suppression of fertility, reversibility, behaviour, safety (Example 12); assay type: in vivo
Excerpt: The efficacy and safety of the re-implantation was followed-up for these supplementary 12 months, i.e. for a total of 24 months.
The observation schedule was as follows: • Study 1: V1: Day −14 to −7; V2: Day 0; V3: 1.5 months±3 days; V4: 3 months±5 days, V5: 6 months±5 days, V6: 9 months±5 days; V7: 12 months #5 days; • Study 2: V8: 12 months±3 days; V9: 13.5 months±3 days; V10: 15 months±5 days; V11: 18 months±5 days; V12: 21 months±5 days; V13: 24 months±5 days.
Regarding the enrolment criteria, in both studies the criteria were as the following: • Domestic Cats • Age >3 MONTHS old or >15 MONTHS in Study 2 • Intact Indoor males • Client-owned (including shelter cats/rehomed by foster families)
In these studies the following primary endpoints were measured: • For Study 1: the suppression of fertility (Testosterone≤0.10 ng/ml* from V4 until V7*-3 to 12 months) • Study 2: the suppression of fertility (Testosterone≤0.10 ng/mL*from V8 until V13 (12 to 24 months) and the time to reversion effect. […]

[7] = tested on: intact male cats; assay: PK/PD preclinical study in 15-week-old male cats: penile spines, behaviour, puberty, reversal (Example 13); assay type: in vivo, cat; conditions: treated at 15 weeks of age
Excerpt: On D14, the three spare cats were removed from the study. Five+3 female cats (Group 3), pubescent at study start, were included in the study solely to assess the reproductive behavior of male cats. They were not treated with the implant. • Duration: 18 Study Months post-injection (PI) (D502/Week 72, i.e., 16.5 calendar months)

[8] = tested on: prepubertal female dogs; assay: Delay of puberty onset in prepubertal female dogs (Example 14); assay type: in vivo, dog
Excerpt: The aim of this study was to evaluate the delay of puberty onset in prepubertal female dogs. As known the puberty begins with the setting up of several parameters: • Increasing number of receptors in central nervous system (CNS) and gonads • Desensitization of hypothalamus/pituitary towards estrogens • Ripening of the gonads and the secondary sexual organs • Follicle ripening, spermatogenesis

[9] = tested on: cat; assay: Safety study in cat, high dose; assay type: in vivo
[10] = in vivo
Method: Samples were collected from 10 intact male cats treated with Suprelorin® 4.7 implant. Samples (based on a plasma volume of 150 μL, treated with K2-EDTA as anticoagulant) were analyzed by a LC-MS/MS method after a solid extraction phase using μElution Oasis® WCX plates. The compound (13C, 15N)-Leu (7)-deslorelin was used as a standard. The calibration range was 4 pg/mL-2000 pg/mL.

[11] = dog, in vivo
[12] = tested on: prepubertal bitches; conditions: cited from earlier work
[13] = in vivo; conditions: male, dog, 4.7 mg
[14] = tested on: male dogs; conditions: cited from earlier work

CCNC(=O)[C@@H]1CCCN1C(=O)[C@H](CCCN=C(N)N)NC(=O)[C@H](CC(C)C)NC(=O)[C@@H](Cc1c[nH]c2ccccc12)NC(=O)[C@H](Cc1ccc(O)cc1)NC(=O)[C@H](CO)NC(=O)[C@H](Cc1c[nH]c2ccccc12)NC(=O)[C@H](Cc1cnc[nH]1)NC(=O)[C@@H]1CCC(=O)N1 [deslorelin]
Time deslorelin remains present in the blood [1]: up to 560 days
Deslorelin concentration below which testosterone started to increase [2]: < 12 pg/mL
Effect on testicular volume [3]: induced a decrease in testicular volume
level at 5376 h [4]: 12 ± 10.4 pg/mL
Deslorelin concentration below which testosterone/LH/FSH concentrations started to increase [5]: 12 pg/mL and < 12 pg/mL
Duration of effective chemical castration ([6]; male cats): at least 12 months
Onset of efficacy in behavioral reduction ([6]; sexual behaviors): 7 to 31 days
Duration of delay of puberty onset [7]: at least 1 year
Findings in prepubertal female dogs ([8]; with 1 implant): no disturbance of body development, the vulva size was normal, but delayed epiphyseal closure
Findings in prepubertal female dogs ([8]; with 3 implants every 4.5 Mo): vulva stayed juvenile and the effect was comparable to prepubertal castration
Safety findings [9]: neither serious adverse events nor live threatening events
Time deslorelin remains in the blood [10]: up to 497 days
Study day until which plasma deslorelin was quantifiable [11]: 441
Delay of puberty ([12]; prepubertal bitch): at least 4.5 months
Progesterone (P4), mean ([12]; prepubertal bitches): 0.6 ± 0.2 ng/mL
level at 10584 h [13]: 2 pg/mL
Presence of deslorelin ([14]; dog, in vivo): 2.5 months
Duration of observed effect ([14]; dogs): at least 6 months
Persistent pharmacological effect by plasma testosterone ([14]; following administration): at least 12 months
